The values that follow come from PMC9304066, “H2S biogenesis by cystathionine beta-synthase: mechanism of inhibition by aminooxyacetic acid and unexpected role of serine” (Cellular and Molecular Life Sciences: CMLS, 2022).

The target of assay [1] is T1, HsCBS (Homo sapiens, UniProt P35520, DEL516-525).
T1 construct: purchased GenScript
T1 sequence (P35520 with tags, fused parts or gaps DEL516-525): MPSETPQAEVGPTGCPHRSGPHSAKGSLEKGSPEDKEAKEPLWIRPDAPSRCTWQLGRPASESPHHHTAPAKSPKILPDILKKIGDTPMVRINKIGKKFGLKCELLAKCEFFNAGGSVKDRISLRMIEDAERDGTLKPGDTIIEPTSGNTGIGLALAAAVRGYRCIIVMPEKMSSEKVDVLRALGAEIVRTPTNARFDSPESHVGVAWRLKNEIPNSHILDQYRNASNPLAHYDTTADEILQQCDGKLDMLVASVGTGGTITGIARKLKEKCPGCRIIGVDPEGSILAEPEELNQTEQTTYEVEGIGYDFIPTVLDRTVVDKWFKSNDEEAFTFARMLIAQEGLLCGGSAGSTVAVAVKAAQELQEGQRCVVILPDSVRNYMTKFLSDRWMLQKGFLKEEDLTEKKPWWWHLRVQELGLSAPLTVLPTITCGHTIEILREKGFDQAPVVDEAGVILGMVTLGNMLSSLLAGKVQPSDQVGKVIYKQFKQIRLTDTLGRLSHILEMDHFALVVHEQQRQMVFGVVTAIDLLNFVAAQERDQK
Put plainly: CBL-LDH coupled-coupled CBS assay, HsCBS. It is filed as biochemical. As to conditions: for Vmax / kcat: CBL-LDH coupled-coupled assay; for Reduction of activity catalyzing condensation of Cys and Hcy yielding H2S: AOAA-inhibited HsCBS (200 µM AOAA). Here is the method: (§1) CBS coupled-coupled assay. CBS canonical activity utilizing Ser and Hcy was determined using cystathionine beta-lyase (CBL) and lactate-dehydrogenase (LDH) coupled-coupled assay as described previously with a few modifications. Native L-LDH from rabbit muscle was purchased from Sigma (catalog no. L2500) and recombinant CBL was purchased from Creative Enzymes (catalog no. NATE-1146). In a final volume of 150 µL, the reaction mixture contained 50 mM Tris–HCl pH 8.9, 20 µM PLP, 500 µM NADH, 1.3 µM LDH, 0.1 µM CBL, 0–20 mM Ser (or 0–50 mM Cys) and 500 ng of tScCBS or HsCBS. Assays with HsCBS were carried out in the absence or presence of 500 µM CBS allosteric activator S-adenosylmethionine (SAM). The reaction was triggered by the addition of 2 mM Hcy and the oxidation of NADH to NAD^+ was followed by monitoring the decrease in absorbance at 340 nm over time (ε340 = 6220 M^−1.cm^−1). […] All measurements were performed in triplicates using Tecan Infinite 200 PRO microplate reader. Kinetic data were analyzed using GraphPad Prism software.

Assay [2] addresses T1, HsCBS. Description: CBS H2S production assay (AzMC fluorometric), HsCBS. It is filed as biochemical. As to conditions: for IC50: AzMC assay, 5 mM Cys + 2 mM Hcy. How it is done:
CBS H2S production assay. H2S-producing activity of CBS, utilizing Cys and Hcy, was determined using a fluorometric assay employing the H2S-selective fluorescent probe 7-azido-4-methylcoumarin (AzMC) as described previously. The reaction mixture in a total volume of 200 µL contained 50 mM Tris–HCl pH 8.6, 5 μM PLP, 2 mM Hcy, 10 μM AzMC and 500 ng tScCBS or HsCBS. The plate was incubated for 10 min at 37°C and the enzymatic activity was triggered by adding 0–50 mM Cys. The fluorescence of the mixtures at 450 nm (excited at 365 nm) was followed for 2 h at 37°C. All measurements were performed in triplicates using Tecan Infinite 200 PRO microplate reader. Kinetic data were analyzed using GraphPad Prism software.

Another assay relates to HEK293 cells. Description: Detection of H2S production in live cells (AzMC imaging). It is filed as cell-based, human. How it is done:
Cell culture. The human embryonic kidney cell line HEK293 (ATCC CRL-1573) was cultured in Dulbecco’s Modified Eagle Medium (DMEM) containing 4.5 g/L glucose. The culture medium was supplemented with 10% (v/v) heat-inactivated fetal bovine serum, 2 mM Glutamax, non-essential amino acids, 100 U/ml penicillin and 100 μg/ml streptomycin. Cells were grown in a humidified incubator at 37 °C and 5% CO2 atmosphere. Cell viability and proliferation were assessed using MTT and BrdU assay, respectively, essentially as described previously. Detection of H2S production in live cells. Cells were seeded in black 96-well plates with optical bottom (15,000 cells/well). The following morning, the cells were treated with 150 µM AOAA, 1/3/10 mM Ser or their combination for 24 h. After that the culture medium was replaced with Hank’s Balanced Salt Solution (HBSS) buffer supplemented with 100 μM AzMC and further incubated for 1 h. Dye’s specific fluorescence was visualized using a Leica DFC360 FX microscope and images were captured with Leica Application Suite X software (Leica Biosystems, Germany). Images were analyzed with ImageJ software (version 1.8.0; NIH, Bethesda, MD, USA) and data were analyzed using GraphPad Prism 8 (GraphPad Software Inc.; San Diego, CA, USA).

For another assay, the system named is human recombinant CSE. Further details: method as in PMID 23488457. As to conditions: in vitro; cited from earlier work.
The next assay relates to colon cancer cells. Further details: method as in PMID 23836652, PMID 27521834, PMID 27257787. As to conditions: transformed cells like colon cancer cells; cited from earlier work.
The target in the next assay is T2, tScCBS (Saccharomyces cerevisiae, UniProt P32582).
T2 construct: 6xHis (C); made in house
T2 sequence (P32582 1-345): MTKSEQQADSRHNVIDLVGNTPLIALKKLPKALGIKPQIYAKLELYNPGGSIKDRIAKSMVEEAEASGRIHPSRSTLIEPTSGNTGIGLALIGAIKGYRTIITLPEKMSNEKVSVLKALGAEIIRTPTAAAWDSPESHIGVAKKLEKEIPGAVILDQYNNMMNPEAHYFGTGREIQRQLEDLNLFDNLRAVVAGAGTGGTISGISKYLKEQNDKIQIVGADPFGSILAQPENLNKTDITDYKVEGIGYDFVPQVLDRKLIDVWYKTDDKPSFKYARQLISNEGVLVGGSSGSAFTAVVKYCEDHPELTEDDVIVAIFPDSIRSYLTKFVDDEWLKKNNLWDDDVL
Put plainly: CBL-LDH coupled-coupled CBS assay, tScCBS. It is filed as biochemical. Here is the method: as §1

The subject of the next assay is human skin fibroblasts. Further details: method as in PMID 31481613. The conditions noted are these: cited from earlier work.

`N[C@@H](CO)C(=O)O` [Ser, serine]: at HsCBS [1] (HsCBS + SAM), the Vmax was 156.3 ± 7.6 µmol/h/mg and the kcat stood at 2.7 ± 0.1 s⁻¹. Also, at HsCBS [1] (HsCBS – SAM), the Vmax was determined as 37.2 ± 1.5 µmol/h/mg and the kcat was found to be 0.63 ± 0.06 s⁻¹. For the same compound, on HsCBS [2] (HsCBS in the absence and presence of SAM, 1 mM Ser after 200 µM AOAA incubation, then desalting), the “Recovery of activity of AOAA-inhibited enzyme” value is reported as “substantial recovery”. The “Reduction of cellular H2S productivity” value in the assay on HEK293 cells (HEK293, 10 mM Ser in growth medium) is ~ 29%. Further, the “Reduction of H2S production” value in the assay on HEK293 cells (HEK293, Ser added to medium (1/3/10 mM, 24 h), concentration-dependent, 'up to') is ~ 30%. In addition, the “Recovery of H2S-producing capacity, % of control WT activity” value in the assay on HEK293 cells (HEK293 inhibited by 150 µM AOAA, with 1, 3 or 10 mM Ser) is on record as 82–89%.

As for `NOCC(=O)O` [AOAA, aminooxyacetic acid], the “Potency inhibiting human recombinant CSE relative to CBS” value in the assay with human recombinant CSE is ~ 8 times. For the same compound, the “Reduction of activity catalyzing condensation of Cys and Hcy yielding H2S” value is given as 63% at HsCBS [1] (absence of SAM), 71% on HsCBS [1] (presence of SAM) and 85% on tScCBS (AOAA-inhibited tScCBS (200 µM AOAA)). For the same compound, the “Effect on condensation of Ser and Hcy (canonical reaction)” value was “not impaired” on HsCBS [1] (HsCBS ± 500 µM SAM inhibited by 200 µM AOAA, 5 mM Ser + 2 mM Hcy) and “not impaired” on tScCBS (tScCBS inhibited by 200 µM AOAA, 5 mM Ser + 2 mM Hcy). For the same compound, in the assay with colon cancer cells, the “Concentrations required to achieve similar level of inhibition of CBS-derived H2S biogenesis” value is 0.1 to 2 mM. In addition, the IC50 on HsCBS [2] (HsCBS in the absence of SAM) was determined as 12.8 µM; at HsCBS [2] (HsCBS in the presence of 500 µM SAM), 10.9 µM. For the same compound, the “H2S-producing activity, % of the controls” value with HEK293 cells (HEK293, 150 µM AOAA, 24 h) is on record as ~ 15%. Also, the “Concentration shutting down CBS-derived H2S biogenesis” value in the assay on human skin fibroblasts was 3 µM.

Broadly, the Vmax is the rate approached at saturating substrate. In general, kcat refers to the maximal rate divided by the concentration of active sites. Usually IC50 stands for the point on the concentration scale where inhibition reaches its midpoint.
